In US20130030012A1, “COMPOUNDS” (Glaxo Group Limited, priority 2011, published 2013):
Structures can show the parent of a compound that is named as a salt. Where two headings read alike, the source gives them in different places.

Tests used:
Lp-PLA2 in human plasma = biological target: T1, Lp-PLA2 in human plasma (Homo sapiens, UniProt Q13093); test: Lp-PLA2 human plasma assay (Thio-PAF assay); assay type: biochemical; settings: pooled human plasma; read-out: pIC50 values in the thio-PAF assay (converted)
T1 construct: from tissue; host or cells: pooled human plasma
T1 sequence (Q13093 22-441): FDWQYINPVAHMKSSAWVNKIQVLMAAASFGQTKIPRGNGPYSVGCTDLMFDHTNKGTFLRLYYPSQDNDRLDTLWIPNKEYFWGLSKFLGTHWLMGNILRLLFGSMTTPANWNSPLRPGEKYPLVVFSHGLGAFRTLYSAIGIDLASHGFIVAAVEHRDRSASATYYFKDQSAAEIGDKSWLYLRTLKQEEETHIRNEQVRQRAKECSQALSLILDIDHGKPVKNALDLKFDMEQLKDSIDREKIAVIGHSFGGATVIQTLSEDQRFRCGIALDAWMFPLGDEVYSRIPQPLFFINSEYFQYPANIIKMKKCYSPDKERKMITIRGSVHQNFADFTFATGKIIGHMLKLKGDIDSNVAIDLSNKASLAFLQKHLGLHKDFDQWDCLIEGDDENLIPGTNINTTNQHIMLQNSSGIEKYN
Source text: The human plasma assay utilizes a thioester analog of PAF (phosphatidylcholine), where hydrolysis yields to the formation of a phospholipid containing a free thiol group. The amount of thiol is quantitated continuously by reacting with CPM (7-diethylamino-3-(4′-maleimidylphenyl)-4-methylcoumarin), a maleimide which increases in fluoresence after Michael addition of thiols. This assay may detect the activity of Lp-PLA2 in human plasma, as determined by specific inhibition by Lp-PLA2 inhibitors.
The thio-PAF assay was run as a quenched 15 μL assay. Compounds source plate was prepared by making 1:3 (by volume) serial dilution of the compounds into pure DMSO on 384-well microplate. 0.01 μL of compounds on compound source plate were transferred to 384 well Greiner 784076 (black) low-volume plates by ECHO liquid dispenser. 8 μL pooled human plasma, which was previously aliquoted and frozen, was added. Plates were centrifuged for 10 sec at 500 rpm. After 30 minutes preincubation, 2 μL of substrate solution comprising 2.5 mM 2-thio-PAF [from ethanol stock], […] CPM [from a DMSO stock] and 3.2 mM NEM (N-ethylmaleimide) [made fresh daily in DMSO] in assay buffer of 50 mM HEPES, pH 7.4, 150 mM NaCl, 1 mM CHAPS was added to 384 well Greiner 784076 (black) low-volume plates by BRAVO liquid handling station. After 2 mins, reaction was quenched with 5 μL of 5% aqueous trifluoroacetic acid (TFA). Plates were covered to protect from light and incubated for 40 min at room temperature. Plates were read at ex: 380/em: 485 using—Envision microplate reader. pIC50 data, curve and QC analysis was conducted by using XLFit module in Excel.

[1] = biological target: T2, recombinant human Lp-PLA2 (Homo sapiens, UniProt Q13093); test: Recombinant human Lp-PLA2 assay (rhLp-PLA2, PED6 assay); assay type: biochemical; settings: upper limit for pIC50 in this assay is 9.3
T2 sequence (Q13093 22-441): T1 sequence (Q13093 22-441)
Source text: (1) Recombinant Human Lp-PLA2 Assay (rhLp-PLA2) (Also Referred to as “PED6” Assay)
N-((6-(2,4-dinitrophenyl)amino)-hexanoyl)-2-(4,4-difluoro-5,7-dimethyl-4-bora-3a,4a-diaza-s-indacene-3-pentanoyl)-1-hexadecanoyl-sn-glycero-3-phosphoethanolamine, triethylammonium salt (PED6) is a commercially available fluorescently-labeled phospholipid, which is commercially available from Invitrogene and Molecular Probes. There is a quenching […] and a Bodipy fluorescein (FL) group in the sn2 position. Upon cleavage with Lp-PLA2, the Bodipy FL group is liberated and then may result in an increase in fluorescence. Inhibitors of Lp-PLA2 therefore prevent this cleavage and no fluorescent increase is observed.
The PED6 assay was run as an unquenched 10 μL assay. The source plate containing the compounds to be tested was prepared by making 1:3 (by volume) serial dilution of the compounds within DMSO on 384-well microplate. Then, 0.01 μL of the compounds on compound source plate were transferred into 384 well Greiner 784076 (black) plates using ECHO liquid dispenser. 5 μL of recombinant human Lp-PLA2 enzyme (4 nM (or 110 pM) rhLp-PLA2 in assay buffer of 50 mM HEPES, pH 7.4, 150 mM NaCl, 1 mM CHAPS) was added to each well of the plate. Plates were centrifuged for 10 sec at 500 rpm. After 30 minutes preincubation, 5 μL of substrate ([…] (or 5 μM) PED6 [from 5 mM DMSO stock] in assay buffer of 50 mM HEPES, pH 7.4, 150 mM NaCl, 1 mM CHAPS) was added to 384 well Greiner 784076 (black) plates. Plates were centrifuged for 10 sec at 500 rpm. The plate was covered to protect it from light and incubated for 20 min at room temperature. The plates were read for fluorescence intensity at ex: 480/em: 540 using ViewLux microplate imager for Envision spectrofluoroimeters pIC50 data, curve and QC analysis was conducted by using XL fit module in Excel.
The compounds described below were tested generally according to the PED6 assay described above.

[2] = read-out: pIC50 values in the PED6 assay (converted)

SMILES | IC50 (Lp-PLA2 in human plasma) | IC50 [1, 2] | IC50 ([1]; Table 1, read-out: rhLp-PLA2 (PED6 assay) (pIC50) (converted))
O=c1nc(OCc2ccc(F)c(F)c2)cc2n1CCCN2 [Example 99, 8-((3,4-difluorobenzyl)oxy)-3,4-dihydro-1H-pyrimido[1,6-a]pyrimidin-6(2H)-one] | ≤ 0.1 µM | ≤ 0.01 µM | 
CN1CCCn2c1cc(OCc1ccc(Oc3ccc(F)c(F)c3)c(F)c1)nc2=O [Example 5, 8-((4-(3,4-difluorophenoxy)-3-fluorobenzyl)oxy)-1-methyl-3,4-dihydro-1H-pyrimido[1,6-a]pyrimidin-6(2H)-one] | ≤ 0.1 µM | ≤ 0.01 µM | 
O=c1nc(OCc2ccc(Oc3ccc(F)cc3)c(F)c2)cc2n1CCCN2 [Example 118, 8-((3-fluoro-4-(4-fluorophenoxy)benzyl)oxy)-3,4-dihydro-1H-pyrimido[1,6-a]pyrimidin-6(2H)-one] | ≤ 0.1 µM | ≤ 0.001 µM | 
CN1CCCn2c1cc(OCc1ccc(Oc3ccc(Cl)c(F)c3)c(C#N)c1)nc2=O [Example 96, 2-(4-chloro-3-fluorophenoxy)-5-(((1-methyl-6-oxo-2,3,4,6-tetrahydro-1H-pyrimido[1,6-a]pyrimidin-8-yl)oxy)methyl)benzonitrile] | ≤ 0.1 µM | ≤ 0.001 µM | 
CN1CCCn2c1cc(OCc1cc(F)c(Oc3cccc(C(F)(F)F)c3)c(F)c1)nc2=O [Example 81, 8-((3,5-difluoro-4-(3-(trifluoromethyl)phenoxy)benzyl)oxy)-1-methyl-3,4-dihydro-1H-pyrimido[1,6-a]pyrimidin-6(2H)-one] | ≤ 0.1 µM | ≤ 0.001 µM | 
CN1CCCn2c1cc(OCc1ccc(Oc3ccc(F)c(Cl)c3)cc1)nc2=O [Example 17, 8-((4-(3-chloro-4-fluorophenoxy)benzyl)oxy)-1-methyl-3,4-dihydro-1H-pyrimido[1,6-a]pyrimidin-6(2H)-one] | ≤ 1 µM | ≤ 0.01 µM | 
N#Cc1ccc(Oc2ccc(COc3cc4n(c(=O)n3)CCCN4)cc2C#N)cc1F [Example 104, 4-(2-cyano-4-(((6-oxo-2,3,4,6-tetrahydro-1H-pyrimido[1,6-a]pyrimidin-8-yl)oxy)methyl)phenoxy)-2-fluorobenzonitrile] | ≤ 0.1 µM | ≤ 0.001 µM | 
CN1CCCn2c1cc(OCc1cc(F)c(Oc3cc(F)cc(F)c3)c(F)c1)nc2=O [Example 79, 8-((4-(3,5-difluorophenoxy)-3,5-difluorobenzyl)oxy)-1-methyl-3,4-dihydro-1H-pyrimido[1,6-a]pyrimidin-6(2H)-one] | ≤ 0.1 µM | ≤ 0.001 µM | 0.000794 µM
O=c1nc(OCc2cc(F)c(Oc3ccc(F)cc3)c(F)c2)cc2n1CCCN2 [Example 114, 8-((3,5-difluoro-4-(4-fluorophenoxy)benzyl)oxy)-3,4-dihydro-1H-pyrimido[1,6-a]pyrimidin-6(2H)-one] | ≤ 0.1 µM | ≤ 0.001 µM | 
CN1CCCn2c1cc(OCc1ccc(Oc3cncnc3)c(C#N)c1)nc2=O [Example 86, 5-(((1-methyl-6-oxo-2,3,4,6-tetrahydro-1H-pyrimido[1,6-a]pyrimidin-8-yl)oxy)methyl)-2-(pyrimidin-5-yloxy)benzonitrile] | ≤ 1 µM |  | 
O=c1nc(OCCc2ccc(Cl)c(Cl)c2)cc2n1CCCN2 [Example 112, 8-(3,4-dichlorophenethoxy)-3,4-dihydro-1H-pyrimido[1,6-a]pyrimidin-6(2H)-one] | ≤ 0.1 µM |  | 
CN1CCCn2c1cc(OCCc1ccc(Oc3ccc(F)c(F)c3)cc1)nc2=O [Example 110, 8-(4-(3,4-difluorophenoxy)phenethoxy)-1-methyl-3,4-dihydro-1H-pyrimido[1,6-a]pyrimidin-6(2H)-one] |  | ≤ 0.01 µM | 
CN1CCCn2c1cc(NCCc1ccc(Oc3ccc(Cl)c(C(F)(F)F)c3)cc1)nc2=O [Example 9, 8-((4-(4-chloro-3-(trifluoromethyl)phenoxy)phenethyl)amino)-1-methyl-3,4-dihydro-1H-pyrimido[1,6-a]pyrimidin-6(2H)-one, trifluoroacetic acid salt] | ≤ 1 µM |  | 
CN1CCCn2c1cc(SCc1ccc(F)cc1)nc2=O [Example 66, 8-(4-Fluoro-benzylsulfanyl)-1-methyl-1,2,3,4-tetrahydro-pyrimido[1,6-a]pyrimidin-6-one] | ≤ 1 µM |  | 
Cc1ccc(Oc2ccc(COc3cc4n(c(=O)n3)CCCN4)cc2)cc1F [Example 108, 8-((4-(3-fluoro-4-methylphenoxy)benzyl)oxy)-3,4-dihydro-1H-pyrimido[1,6-a]pyrimidin-6(2H)-one] |  | ≤ 0.01 µM | 
O=c1nc(OCCc2ccc(F)c(F)c2)cc2n1CCCN2 [Example 111, 8-(3,4-difluorophenethoxy)-3,4-dihydro-1H-pyrimido[1,6-a]pyrimidin-6(2H)-one] | ≤ 1 µM |  | 

Second part, the compound after the results:

IC50 (Lp-PLA2 in human plasma) | IC50 [1, 2] | IC50 ([1]; Table 1, read-out: rhLp-PLA2 (PED6 assay) (pIC50) (converted)) | SMILES
≤ 1 µM |  |  | CN1CCCn2c1cc(OCc1ccc(F)cc1F)nc2=O [Example 20, 8-((2,4-difluorobenzyl)oxy)-1-methyl-3,4-dihydro-1H-pyrimido[1,6-a]pyrimidin-6(2H)-one]
≤ 0.1 µM |  |  | CN1CCCn2c1cc(OCc1cccc(C#N)c1)nc2=O [Example 27, 3-(((1-methyl-6-oxo-2,3,4,6-tetrahydro-1H-pyrimido[1,6-a]pyrimidin-8-yl)oxy)methyl)benzonitrile]
≤ 1 µM |  |  | CN1CCCn2c1cc(OCc1cccc(F)c1F)nc2=O [Example 12, 8-((2,3-difluorobenzyl)oxy)-1-methyl-3,4-dihydro-1H-pyrimido[1,6-a]pyrimidin-6(2H)-one]
 | ≤ 0.01 µM |  | CN1CCCn2c1cc(OCc1ccc(Oc3ccc(F)c(F)c3)cc1)nc2=O [Example 14, 8-((4-(3,4-difluorophenoxy)benzyl)oxy)-1-methyl-3,4-dihydro-1H-pyrimido[1,6-a]pyrimidin-6(2H)-one]
≤ 1 µM |  |  | CN1CCCn2c1cc(OCc1ccc(F)cc1)nc2=O [Example 8, 8-((4-fluorobenzyl)oxy)-1-methyl-3,4-dihydro-1H-pyrimido[1,6-a]pyrimidin-6(2H)-one]
≤ 0.1 µM |  |  | CN1CCCn2c1cc(OCc1cc(F)cc(C#N)c1)nc2=O [Example 33, 3-fluoro-5-(((1-methyl-6-oxo-2,3,4,6-tetrahydro-1H-pyrimido[1,6-a]pyrimidin-8-yl)oxy)methyl)benzonitrile]
≤ 1 µM |  |  | CN1CCCn2c1cc(OCc1cc(F)cc(F)c1)nc2=O [Example 31, 8-((3,5-difluorobenzyl)oxy)-1-methyl-3,4-dihydro-1H-pyrimido[1,6-a]pyrimidin-6(2H)-one]
≤ 0.1 µM |  |  | CN1CCCn2c1cc(OCc1cccc(F)c1)nc2=O [Example 37, 8-((3-fluorobenzyl)oxy)-1-methyl-3,4-dihydro-1H-pyrimido[1,6-a]pyrimidin-6(2H)-one]
